Experimental data reported in PMC12281475, “Mediator Kinase Inhibitor Selectivity and Activity in Colorectal Cancer” (ACS Chemical Biology, 2025).

System: COLO205 cells
Test: Phospho-proteome profiling (CDK-motif antibody enrichment, LC-MS/MS)
Assay type: cell-based, human
Details: 6 H
Description: We phospho-proteome profiled COLO205 cells to identify Mediator kinase substrates following chemical inhibition of Mediator kinase activity. Given the confirmed CDK8/19 selectivity of our compounds in binding and enzymatic activity assays, we employed a pool of antibodies selective for the proline-rich motifs phosphorylated by the CDK family to enrich potential CDK8/19 substrates for LC-MS/MS analysis.
Adherent COLO205 cells were lysed with a urea buffer, lysates were reduced with DTT, alkylated with iodoacetimide and digested with trypsin-tosylphenylalanyl chloromethyl ketone. Digested peptides were immunoprecipitated using a pool of motif antibodies from Cell Signaling Technologies (US) comprising: phospho-MAPK substrate (PXS*P or S*PXR/K, #2325, RRID:AB_331820), phospho-CDKs substrate ((K/H)-S*P, #2324; RRID:AB_2244779), phospho-PLK binding motif (ST*P, #5243; RRID:AB_10891778) and phospho-tPE motif (T*PE, #3004; RRID:AB_10890649)-of phospho-MAPK (2325), phospho-CDK (2324), phospho-PLK (5243) and phospho-tPE (C3004) motif-recognizing antibodies immobilized onto protein A/G beads. Immunoprecipitated peptides were analyzed using an LTQ-Orbitrap-Velos. Sequences were assigned to the MS/MS spectra and evaluated using SEQUEST 3G and SORCERER 2 (Sage-N Research v4.0, Milpitas). Quantitative data was evaluated and clustered in Spotfire Decision Site (www.spotfire.tibco.com) and normalized using quartile normalization. Functional annotation and pathway analysis used DAVID (https://david.ncifcrf.gov/). […]
Phospho-proteome analyses
Adherent COLO205 cells were washed with PBS and cells lysed using urea lysis buffer (9 M Urea, 20 mM HEPES, pH 8.0, 1 mM beta-glycerophosphate, 1 mM sodium vanadate, 2.5 mM sodium pyrophosphate) and stored at -80 °C prior to analysis. The supernatants were reduced with 100 mM DTT for 30 minutes at 55 °C, followed by alkylation with 50 mM iodoacetimide for 15 minutes at ambient temperature in the dark.
The samples were diluted in 20 mM HEPES, pH 8.0 and digested overnight with 10 ug/mL trypsin-tosylphenylalanyl chloromethyl ketone in 1 mM HCl. Digested peptides were acidified with 1% formic acid and then desalted over 360-mg SEP PAK C18 columns (Waters, UK). Peptides were eluted with 40% acetonitrile in 0.125% formic acid, dried under a vacuum and the lyophilised peptides used for immunoprecipitation.
A pool of motif antibodies from Cell Signaling Technologies (US) comprising: phospho-MAPK substrate (PXS*P or S*PXR/K, #2325, RRID:AB_331820), phospho-CDKs substrate ((K/H)S*P, #2324; RRID:AB_2244779), phospho-PLK binding motif (ST*P, […]
RRID:AB_10890649), were immobilised onto protein A/G beads overnight at 4 °C. The lyophilised peptides were resuspended in MOPS buffer (50 mM MOPS, pH 7.2, 10 mM KH2PO4, 50 mM NaCl) and centrifuged for 5 mins at 13,500 rpm in an Eppendorf benchtop microcentrifuge. The supernatants were incubated with the motif-bound beads for 2.5 hours at 4 °C . The beads were harvested by centrifugation at 4000 rpm in an Eppendorf benchtop microcentrifuge for 5 mins, washed with MOPS buffer twice and washed again 5 times with deionised water. The peptides were eluted off the beads using 0.125% formic acid, were desalted and dried under a vacuum. The lyophilised immunoprecipitated peptides were resuspended in 0.125% formic acid and separated on a capillary column packed with Magic C18 AQ reversed-phase resin.
Peptides were eluted using a 72-minute linear gradient of acetonitrile in 0.125% formic acid delivered at 280nL/min. Samples were analysed using an LTQ-Orbitrap-Velos.
MS Parameter Settings were: MS Run Time 96 min, MS1 Scan Range (300.0 – 1500.00), Top 20 MS/MS (Min Signal 500, Isolation Width 2.0, Normalized Coll.
Charge State Rejection Enabled, Charge State 1+ Rejected, Dynamic Exclusion Enabled, Repeat Count 1, Repeat Duration 35.0, Exclusion List Size 500, Exclusion Duration 40.0, Exclusion Mass Width Relative to Mass, Exclusion Mass Width 10ppm). […]

[1] = MCM4 peptide 69 - fsSppqmhssaipldfdvSspltygtpssr - 98
[2] = MCM4 peptide 86 - vsSpltygtpssr - 98
[3] = MDC1 peptide 1645 - SSvkTpkpvepaaSdlepftptdqsvTpeaiaqggqsk - 1682
[4] = MDC1 peptide 1649 - tpkpvepaasdlepfTptdqsvTpeaiaqggqsk - 1682
[5] = MED13 peptide 551 - TpStpqsqhfyqmpTpdplvpskpmedr - 578
[6] = MED13 peptide 551 - tpstpqSqhfyqmpTpdplvpskpmedr - 578
[7] = MED14 peptide 1106 - agnwpgSpqvsgpSpaar - 1123
[8] = MED26 peptide 295 - gSvpSpSprpqaldatqvpSplplaqpsTppvr - 328
[9] = MED26 peptide 295 - gsvpSpsprpqaldatqvpSplplaqpStppvrr - 328
[10] = MED26 peptide 295 - gsvpspsprpqaldatqvpSplplaqpStppvrr -328
[11] = MED26 peptide 295 - gsvpspsprpqaldatqvpSplplaqpsTppvr - 328
[12] = MLLT6 peptide 446 - palsatpvpadeTpetglkek - 466
[13] = NDRG3 peptide 327 - srthstSSSlgsgeSpfsr - 345
[14] = NEDD4L peptide 549 - avkdTlSnpqSpqpSpYnSpkpqhk - 593
[15] = NOP2 peptide 173 - eaaagiqwSeeeTedeeeekevTpesgppk - 202
[16] = NOSIP peptide 158 - vlpsfwipslTpeak - 172
[17] = NRIP1 peptide 537 - tsviespstnrtTpvSTpplltssk - 561
[18] = PBK peptide 18 - ksvlcstpTinipaSpfmqk - 37
[19] = PBK peptide 19 - svlcStptinipaSpfmqk - 37
[20] = PBK peptide 19 - svlcsTpTinipaspfmqk - 37
[21] = PDE12 peptide 200 - eakpgaaepevgvpsslspSSpSsswtetdveer - 233
[22] = PLEC peptide 4274/4384 - SSsvgsSssypiSpavsr - 4291/4401
[23] = PLEKHA6 peptide 453 - shsvprspSqgsysr - 467
[24] = PPP1R18 peptide 192 - wrlSpgeTper - 202
[25] = PRC1 peptide 487/447 - klntttmsnatanssirpifggtvyhSpvsr - 517/477
[26] = RACGAP1 peptide 572 - vsllgpvTTpehqllkTpSSSSlsqr - 597
[27] = RB1 peptide 788 - spykfpsSplripggniYisplkSpykiseglptptk - 824
[28] = RB1 peptide 792 - fpSSplripggniyiSplkSpYkiseglptpTk - 824
[29] = SEMA6A peptide 745 - adqhhldltalpTpestptlqqk - 767
[30] = SH3RF1 peptide 682 - ivtvlpglpTSpdsassacgnssatkpdkdsk - 713
[31] = SPEN peptide 188 - SrSpnrfdahdpr - 200
[32] = STAT1 peptide 716 - lqttdnllpmsSpeefdevsr - 736
[33] = TACC2 peptide 8/2304 - mkkTpekldntpaSpprSpaepndipiak - 36/2332
[34] = TANC2 peptide 1556 - sqSgspvryqqetsvsqlpgrpksplsSk - 1583
[35] = TASOR peptide 969 - qrSSdYqfpSSpftdtlk - 986
[36] = TASOR peptide 971- ssdyqfpSspftdtlk - 986
[37] = TASOR peptide 971 - ssdyqfpsSpftdtlk - 986
[38] = TBC1D10B peptide 686 - asagpapgpvvtaeglhpslpSptgnsTplgssk - 718
[39] = TBC1D23 peptide 505- visfientsTpvdr - 518
[40] = TFEB peptide 406 - edegppgypeplapghgSpfpslsk - 430
[41] = TGS1 peptide 290 - vdlvsfpsSpimvdndssgtsdkdhseildgisnik - 325
[42] = TLE3 peptide 282 - daptspasvassssTpssk - 300
[43] = TMPO peptide 151 - eqgteSrssTplptisssaentr - 173
[44] = TNRC18 peptide 1230 - vdSpgrTepcTaaldlgvqlTpeTlveak -1258
[45] = TUT1 peptide 273 - apespSldsalaSpldpqa - 293l
[46] = UBR5 peptide 634 - rsTpapkeeekvneeqwslr -653
[47] = WAC peptide 455 - iStpqtntvpikplisTppvsSqpk - 479
[48] = ZC3H13 peptide 1206 - lrSpSndsahr - 1216
[49] = ZMYM4 peptide 1085 - dqgstysgdleseavStphsweeelnhyalk -1115
[50] = ZMYND8 peptide 278/423 - rislsdmprSpmstnssvhtgsdveqdaekk - 307/452
[51] = ZNF687 peptide 123 - mqngfgSpepslpgtphSpappSggtwk - 150

Cn1cc(-c2ccc(-c3cncc(Cl)c3N3CCC4(CCNC4=O)CC3)cc2)cn1 [CCT251545]
MEAN MS SIGNAL CMPD 1 6 H (MCM4 peptide 69 - fSsppqmhssaipldfdvSsplTygtpssr - 98): 71644
CMPD 1/DMSO [1]: 0.313
MEAN MS SIGNAL CMPD 1 6 H [1]: 16633
CMPD 1/DMSO [2]: 0.545
MEAN MS SIGNAL CMPD 1 6 H [2]: 23881
CMPD 1/DMSO [3]: 0.574
MEAN MS SIGNAL CMPD 1 6 H [3]: 46837
CMPD 1/DMSO [4]: 0.539
MEAN MS SIGNAL CMPD 1 6 H [4]: 44678
CMPD 1/DMSO [5]: 0.359
MEAN MS SIGNAL CMPD 1 6 H [5]: 9156
CMPD 1/DMSO [6]: 0.429
MEAN MS SIGNAL CMPD 1 6 H [6]: 13284
CMPD 1/DMSO [7]: 0.142
MEAN MS SIGNAL CMPD 1 6 H [7]: 17584
CMPD 1/DMSO [8]: 0.215
MEAN MS SIGNAL CMPD 1 6 H [8]: 56284
CMPD 1/DMSO [9]: 0.344
MEAN MS SIGNAL CMPD 1 6 H [9]: 14569
CMPD 1/DMSO [10]: 0.404
MEAN MS SIGNAL CMPD 1 6 H [10]: 11273
CMPD 1/DMSO [11]: 0.324
MEAN MS SIGNAL CMPD 1 6 H [11]: 51395
CMPD 1/DMSO [12]: 0.499
MEAN MS SIGNAL CMPD 1 6 H [12]: 13974
CMPD 1/DMSO [13]: 0.635
MEAN MS SIGNAL CMPD 1 6 H [13]: 12713
CMPD 1/DMSO [14]: 2.036
MEAN MS SIGNAL CMPD 1 6 H [14]: 126084
CMPD 1/DMSO [15]: 0.618
MEAN MS SIGNAL CMPD 1 6 H [15]: 97741
CMPD 1/DMSO [16]: 0.562
MEAN MS SIGNAL CMPD 1 6 H [16]: 425932
CMPD 1/DMSO [17]: 1.857
MEAN MS SIGNAL CMPD 1 6 H [17]: 157739
CMPD 1/DMSO [18]: 0.492
MEAN MS SIGNAL CMPD 1 6 H [18]: 411168
CMPD 1/DMSO [19]: 0.553
MEAN MS SIGNAL CMPD 1 6 H [19]: 167495
CMPD 1/DMSO [20]: 0.535
MEAN MS SIGNAL CMPD 1 6 H [20]: 63854
CMPD 1/DMSO [21]: 0.255
MEAN MS SIGNAL CMPD 1 6 H [21]: 32966
CMPD 1/DMSO [22]: 0.605
MEAN MS SIGNAL CMPD 1 6 H [22]: 787072
CMPD 1/DMSO [23]: 1.818
MEAN MS SIGNAL CMPD 1 6 H [23]: 361701
CMPD 1/DMSO [24]: 0.562
MEAN MS SIGNAL CMPD 1 6 H [24]: 109529
CMPD 1/DMSO [25]: 0.592
MEAN MS SIGNAL CMPD 1 6 H [25]: 508312
CMPD 1/DMSO [26]: 0.557
MEAN MS SIGNAL CMPD 1 6 H [26]: 38518
CMPD 1/DMSO [27]: 1.786
MEAN MS SIGNAL CMPD 1 6 H [27]: 21423
CMPD 1/DMSO [28]: 1.780
MEAN MS SIGNAL CMPD 1 6 H [28]: 52675
CMPD 1/DMSO [29]: 2.360
MEAN MS SIGNAL CMPD 1 6 H [29]: 62365
CMPD 1/DMSO [30]: 0.610
MEAN MS SIGNAL CMPD 1 6 H [30]: 121720
CMPD 1/DMSO [31]: 2.092
MEAN MS SIGNAL CMPD 1 6 H [31]: 88908
CMPD 1/DMSO [32]: 0.357
MEAN MS SIGNAL CMPD 1 6 H [32]: 223699
CMPD 1/DMSO [33]: 0.521
MEAN MS SIGNAL CMPD 1 6 H [33]: 16068
CMPD 1/DMSO [34]: 3.615
MEAN MS SIGNAL CMPD 1 6 H [34]: 175022
CMPD 1/DMSO [35]: 0.437
MEAN MS SIGNAL CMPD 1 6 H [35]: 47745
CMPD 1/DMSO [36]: 0.316
MEAN MS SIGNAL CMPD 1 6 H [36]: 116521
CMPD 1/DMSO [37]: 0.406
MEAN MS SIGNAL CMPD 1 6 H [37]: 489288
CMPD 1/DMSO [38]: 0.515
MEAN MS SIGNAL CMPD 1 6 H [38]: 63051
CMPD 1/DMSO [39]: 0.544
MEAN MS SIGNAL CMPD 1 6 H [39]: 230940
CMPD 1/DMSO [40]: 0.596
MEAN MS SIGNAL CMPD 1 6 H [40]: 1352019
CMPD 1/DMSO [41]: 0.563
MEAN MS SIGNAL CMPD 1 6 H [41]: 156101
CMPD 1/DMSO [42]: 2.152
MEAN MS SIGNAL CMPD 1 6 H [42]: 35775
CMPD 1/DMSO [43]: 2.220
MEAN MS SIGNAL CMPD 1 6 H [43]: 19216
CMPD 1/DMSO [44]: 0.311
MEAN MS SIGNAL CMPD 1 6 H [44]: 69822
CMPD 1/DMSO [45]: 2.097
MEAN MS SIGNAL CMPD 1 6 H [45]: 41046
CMPD 1/DMSO [46]: 0.456
MEAN MS SIGNAL CMPD 1 6 H [46]: 139720
CMPD 1/DMSO [47]: 0.617
MEAN MS SIGNAL CMPD 1 6 H [47]: 154581
CMPD 1/DMSO [48]: 1.804
MEAN MS SIGNAL CMPD 1 6 H [48]: 405976
CMPD 1/DMSO [49]: 0.475
MEAN MS SIGNAL CMPD 1 6 H [49]: 46592
CMPD 1/DMSO [50]: 0.617
MEAN MS SIGNAL CMPD 1 6 H [50]: 23551
CMPD 1/DMSO [51]: 0.458
MEAN MS SIGNAL CMPD 1 6 H [51]: 22069
